From patent publication US20080269241A1, “BICYCLIC AMINOPROPYL TETRAHYDRO-PYRAZOLO-PYRIDINE MODULATORS OF CATHEPSIN S” (priority 2007, published 2008)

Molecular target: T1, human cathepsin S (CatS) (Homo sapiens, UniProt P25774)
T1 construct: made in house; host or cells: baculovirus system (insect cells)
Assay: Recombinant human cathepsin S (CatS) fluorogenic substrate inhibition assay
Type: biochemical
Conditions: recombinant human CatS, 10 μM Z-Valine-Valine-Arginine-AMC, pH 5.0; average of results obtained; read-out: CatS IC50
Procedure: Recombinant human cathepsin S (CatS) was expressed in the baculovirus system and purified in one step with a thiopropyl-sepharose column. […] The assay is run in 150 mM sodium acetate pH 5.0 containing 1.5 mM DTT and 150 mM NaCl. […] Measurements are taken every min for 20 min. The rate is calculated from the slope of the increase in fluorescence and the percent inhibition is calculated from this.

T1 sequence (P25774 115-331): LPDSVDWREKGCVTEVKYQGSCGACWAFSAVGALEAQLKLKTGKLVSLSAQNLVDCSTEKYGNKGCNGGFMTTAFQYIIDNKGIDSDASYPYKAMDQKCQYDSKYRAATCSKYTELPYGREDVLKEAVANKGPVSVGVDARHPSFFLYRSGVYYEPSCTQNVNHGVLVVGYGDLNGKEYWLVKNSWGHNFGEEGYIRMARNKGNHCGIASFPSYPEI

Structure (SMILES) | IC50
CC(C)=CC(=O)NCc1cc(-c2nn(CCCN3CCC(N4CCCC4=O)CC3)c3c2CN(S(C)(=O)=O)CC3)ccc1C(F)(F)F [Example 42, 3-Methyl-but-2-enoic acid 5-(5-methanesulfonyl-1-{3-[4-(2-oxo-pyrrolidin-1-yl)-piperidin-1-yl]-propyl}-4,5,6,7-tetrahydro-1H-pyrazolo[4,3-c]pyridin-3-yl)-2-trifluoromethyl-benzylamide] | 30 nM
CS(=O)(=O)N1CCc2c(c(-c3ccc(C(F)(F)F)c(Cn4cnnn4)c3)nn2CCCN2CCC(N3CCCC3=O)CC2)C1 [Example 176, 1-(1-{3-[5-Methanesulfonyl-3-(3-tetrazol-1-ylmethyl-4-trifluoromethyl-phenyl)-4,5,6,7-tetrahydro-pyrazolo[4,3-c]pyridin-1-yl]-propyl}-piperidin-4-yl)-pyrrolidin-2-one] | 1320 nM
CS(=O)(=O)N1CCc2c(c(-c3ccc(Cl)c(NS(=O)(=O)Cc4ccccc4)c3)nn2CCCN2CCN(c3cccc(Cl)c3)CC2)C1 [Example 202, N-[2-Chloro-5-(1-{3-[4-(3-chloro-phenyl)-piperazin-1-yl]-propyl}-5-methanesulfonyl-4,5,6,7-tetrahydro-1H-pyrazolo[4,3-c]pyridin-3-yl)-phenyl]-C-phenyl-methanesulfonamide] | 680 nM
CS(=O)(=O)N1CCc2c(c(-c3ccc(C(F)(F)F)c(CNC(=O)C4CCCCCC4)c3)nn2CC(O)CN2CCC(N3CCCC3=O)CC2)C1 (stereo not drawn) [Example 130, Cycloheptanecarboxylic acid 5-(1-{2-hydroxy-3-[4-(2-oxo-pyrrolidin-1-yl)-piperidin-1-yl]-propyl}-5-methanesulfonyl-4,5,6,7-tetrahydro-1H-pyrazolo[4,3-c]pyridin-3-yl)-2-trifluoromethyl-benzylamide] | 270 nM
CS(=O)(=O)N1CCc2c(c(-c3ccc(C(F)(F)F)c(CNC(=O)CN4CCCCC4)c3)nn2CCCN2CCC(N3CCCC3=O)CC2)C1 [Example 135, N-[5-(5-Methanesulfonyl-1-{3-[4-(2-oxo-pyrrolidin-1-yl)-piperidin-1-yl]-propyl}-4,5,6,7-tetrahydro-1H-pyrazolo[4,3-c]pyridin-3-yl)-2-trifluoromethyl-benzyl]-2-piperidin-1-yl-acetamide] | 410 nM
CC(C)CC(=O)NCc1cc(-c2nn(CC(O)CN3CCC(O)(c4ccccn4)CC3)c3c2CN(S(C)(=O)=O)CC3)ccc1C(F)(F)F (stereo not drawn) [Example 258, N-(5-{1-[2-Hydroxy-3-(4′-hydroxy-3′,4′,5′,6′-tetrahydro-2′H-[2,4′]bipyridinyl-1′-yl)-propyl]-5-methanesulfonyl-4,5,6,7-tetrahydro-1H-pyrazolo[4,3-c]pyridin-3-yl}-2-trifluoromethyl-benzyl)-3-methyl-butyramide] | 40 nM
CS(=O)(=O)N1CCc2c(c(-c3ccc(C(F)(F)F)c(CNC(=O)c4cncs4)c3)nn2CC(O)CN2CCC(N3CCCC3=O)CC2)C1 (stereo not drawn) [Example 134, Thiazole-5-carboxylic acid 5-(1-{2-hydroxy-3-[4-(2-oxo-pyrrolidin-1-yl)-piperidin-1-yl]-propyl}-5-methanesulfonyl-4,5,6,7-tetrahydro-1H-pyrazolo[4,3-c]pyridin-3-yl)-2-trifluoromethyl-benzylamide] | 380 nM
CC(C)=CC(=O)NCc1cc(-c2nn(CC(O)CN3CCC(c4c[nH]c5ncccc45)CC3)c3c2CN(S(C)(=O)=O)CC3)ccc1C(F)(F)F (stereo not drawn) [Example 272, 3-Methyl-but-2-enoic acid 5-(1-{2-hydroxy-3-[4-(1H-pyrrolo[2,3-b]pyridin-3-yl)-piperidin-1-yl]-propyl}-5-methanesulfonyl-4,5,6,7-tetrahydro-1H-pyrazolo[4,3-c]pyridin-3-yl)-2-trifluoromethyl-benzylamide] | 20 nM
CS(=O)(=O)N1CCc2c(c(-c3ccc(C(F)(F)F)c(CNC(=O)c4ccc(N5CCOCC5)nc4)c3)nn2CC(O)CN2CCC(N3CCCC3=O)CC2)C1 (stereo not drawn) [Example 132, N-[5-(1-{2-Hydroxy-3-[4-(2-oxo-pyrrolidin-1-yl)-piperidin-1-yl]-propyl}-5-methanesulfonyl-4,5,6,7-tetrahydro-1H-pyrazolo[4,3-c]pyridin-3-yl)-2-trifluoromethyl-benzyl]-6-morpholin-4-yl-nicotinamide] | 340 nM
CC1CCCN(CC(=O)NCc2cc(-c3nn(CCCN4CCC(N5CCCC5=O)CC4)c4c3CN(S(C)(=O)=O)CC4)ccc2C(F)(F)F)C1 (stereo not drawn) [Example 223, N-[5-(5-Methanesulfonyl-1-{3-[4-(2-oxo-pyrrolidin-1-yl)-piperidin-1-yl]-propyl}-4,5,6,7-tetrahydro-1H-pyrazolo[4,3-c]pyridin-3-yl)-2-trifluoromethyl-benzyl]-2-(3-methyl-piperidin-1-yl)-acetamide] | 700 nM
CS(=O)(=O)N1CCc2c(c(-c3ccc(C(F)(F)F)c(CNC(=O)c4ccc(C(F)(F)F)nc4)c3)nn2CC(O)CN2CCC(N3CCCC3=O)CC2)C1 (stereo not drawn) [Example 54, N-[5-(1-{2-Hydroxy-3-[4-(2-oxo-pyrrolidin-1-yl)-piperidin-1-yl]-propyl}-5-methanesulfonyl-4,5,6,7-tetrahydro-1H-pyrazolo[4,3-c]pyridin-3-yl)-2-trifluoromethyl-benzyl]-6-trifluoromethyl-nicotinamide] | 70 nM
Cc1noc(C2CCCN(CC(O)Cn3nc(-c4ccc(C(F)(F)F)c(CNC(=O)CC(C)C)c4)c4c3CCN(S(C)(=O)=O)C4)C2)n1 (stereo not drawn) [Example 285, N-[5-(1-{2-Hydroxy-3-[3-(3-methyl-[1,2,4]oxadiazol-5-yl)-piperidin-1-yl]-propyl}-5-methanesulfonyl-4,5,6,7-tetrahydro-1H-pyrazolo[4,3-c]pyridin-3-yl)-2-trifluoromethyl-benzyl]-3-methyl-butyramide] | 390 nM
Cc1noc(C2CCN(CC(O)Cn3nc(-c4ccc(C(F)(F)F)c(CNC(=O)CC(C)C)c4)c4c3CCN(S(C)(=O)=O)C4)CC2)n1 (stereo not drawn) [Example 286, N-[5-(1-{2-Hydroxy-3-[4-(3-methyl-[1,2,4]oxadiazol-5-yl)-piperidin-1-yl]-propyl}-5-methanesulfonyl-4,5,6,7-tetrahydro-1H-pyrazolo[4,3-c]pyridin-3-yl)-2-trifluoromethyl-benzyl]-3-methyl-butyramide] | 30 nM
CC(C)=CC(=O)NCc1cc(-c2nn(CC(O)CN3CCC(N4CCOCC4)CC3)c3c2CN(S(C)(=O)=O)CC3)ccc1C(F)(F)F (stereo not drawn) [Example 30, 3-Methyl-but-2-enoic acid 5-{1-[2-hydroxy-3-(4-morpholin-4-yl-piperidin-1-yl)-propyl]-5-methanesulfonyl-4,5,6,7-tetrahydro-1H-pyrazolo[4,3-c]pyridin-3-yl}-2-trifluoromethyl-benzylamide] | 40 nM
CC(C)CC(=O)NCc1cc(-c2nn(CCCN3CCC(N4CCCC4=O)CC3)c3c2CN(S(C)(=O)=O)CC3)ccc1C(F)(F)F [Example 36, N-[5-(5-Methanesulfonyl-1-{3-[4-(2-oxo-pyrrolidin-1-yl)-piperidin-1-yl]-propyl}-4,5,6,7-tetrahydro-1H-pyrazolo[4,3-c]pyridin-3-yl)-2-trifluoromethyl-benzyl]-3-methyl-butyramide] | 80 nM
CS(=O)(=O)N1CCc2c(c(-c3ccc(Cl)c(CNC(=O)c4ccc(F)cc4)c3)nn2CC(O)CN2CCC(N3CCCC3=O)CC2)C1 (stereo not drawn) [Example 1, N-[2-Chloro-5-(1-{2-hydroxy-3-[4-(2-oxo-pyrrolidin-1-yl)-piperidin-1-yl]-propyl}-5-methanesulfonyl-4,5,6,7-tetrahydro-1H-pyrazolo[4,3-c]pyridin-3-yl)-benzyl]-4-fluoro-benzamide] | 20 nM
CS(=O)(=O)N1CCc2c(c(-c3ccc(C(F)(F)F)c(CNC(=O)c4ccc5nccnc5c4)c3)nn2CC(O)CN2CCC(N3CCCC3=O)CC2)C1 (stereo not drawn) [Example 139, Quinoxaline-6-carboxylic acid 5-(1-{2-hydroxy-3-[4-(2-oxo-pyrrolidin-1-yl)-piperidin-1-yl]-propyl}-5-methanesulfonyl-4,5,6,7-tetrahydro-1H-pyrazolo[4,3-c]pyridin-3-yl)-2-trifluoromethyl-benzylamide] | 490 nM
CC(C)=CC(=O)NCc1cc(-c2nn(CC(O)CN3CCN(c4ncccc4Cl)CC3)c3c2CN(S(C)(=O)=O)CC3)ccc1C(F)(F)F (stereo not drawn) [Example 262, 3-Methyl-but-2-enoic acid 5-(1-{3-[4-(3-chloro-pyridin-2-yl)-piperazin-1-yl]-2-hydroxy-propyl}-5-methanesulfonyl-4,5,6,7-tetrahydro-1H-pyrazolo[4,3-c]pyridin-3-yl)-2-trifluoromethyl-benzylamide] | 10 nM
CS(=O)(=O)N1CCc2c(c(-c3ccc(C(F)(F)F)c(CNC(=O)c4ccco4)c3)nn2CC(O)CN2CCC(N3CCCC3=O)CC2)C1 (stereo not drawn) [Example 52, Furan-2-carboxylic acid 5-(1-{2-hydroxy-3-[4-(2-oxo-pyrrolidin-1-yl)-piperidin-1-yl]-propyl}-5-methanesulfonyl-4,5,6,7-tetrahydro-1H-pyrazolo[4,3-c]pyridin-3-yl)-2-trifluoromethyl-benzylamide] | 190 nM
CS(=O)(=O)N1CCc2c(c(-c3ccc(C(F)(F)F)c(CNC(=O)c4ccc[nH]4)c3)nn2CC(O)CN2CCC(N3CCCC3=O)CC2)C1 (stereo not drawn) [Example 124, 1H-Pyrrole-2-carboxylic acid 5-(1-{2-hydroxy-3-[4-(2-oxo-pyrrolidin-1-yl)-piperidin-1-yl]-propyl}-5-methanesulfonyl-4,5,6,7-tetrahydro-1H-pyrazolo[4,3-c]pyridin-3-yl)-2-trifluoromethyl-benzylamide] | 180 nM
CSC(=O)NCc1cc(-c2nn(CCCN3CCC(N4CCCC4=O)CC3)c3c2CN(S(C)(=O)=O)CC3)ccc1C(F)(F)F [Example 46, [5-(5-Methanesulfonyl-1-{3-[4-(2-oxo-pyrrolidin-1-yl)-piperidin-1-yl]-propyl}-4,5,6,7-tetrahydro-1H-pyrazolo[4,3-c]pyridin-3-yl)-2-trifluoromethyl-benzyl]-thiocarbamic acid S-methyl ester] | 410 nM
